# Experiments:
# [1] = tested on: mature cotton leaf explants; test: Ethylene-induced petiole abscission of mature cotton leaf explants; assay type: in vivo, cotton (Gossyium hirsutum barbadense L.); details: for abscission: day 5
# Protocol: (§1) (1) Abscission—This is a very sensitive model system for studying the effects of plant hormones. Ethylene induces the process of abscission, while auxin delays it. In the laboratory the experimental system is based on plant organ explants, which include the abscission zone. Abscission is induced by exposure to ethylene and at the termination of the experiment the number of abscised organs, usually either leaf blades or petioles are counted and the fraction of abscission is calculated. In the case of fruit, the decrease in fruit retention force is analyzed. In cotton, when WS-CPD (the ethylene-action antagonist herein disclosed) is tested, the whole plants or explants are pretreated by spraying with the antagonist, dissolved in a phosphate buffer solution (10-20 mM, pH 7.0) including 0.1% commercially available Kinetic™ as surfactant, and left to incubate for a predetermined time, usually between 6 and 24 h. The plants or explants are then further exposed for 24 h to ethylene gas (5 to 20 μL L^−1). The plants or explants are then ventilated and incubated for the required time under controlled conditions. At the end of the experiment the percentage of abscission is determined. (2) Chlorophyll degradation—This is a standard model for studying senescence. Plant material (whole plants, excised leaves or leaf discs) are pretreated. In cotton, tobacco and wheat, when WS-CPD is tested, the whole plants or explants are pretreated by spraying with the antagonist, dissolved in phosphate buffer solution (10-20 mM, pH 7.0) including 0.1% commercially available Kinetic™ surfactant, and left to incubate for a predetermined time, usually between 6 and 241. The plants or explants are then further exposed for 24 h to ethylene gas (1 to 100 μL L^−1), or sprayed with Ethephon™ (wheat; 250 to 750 μL L^−1). The plants or explants are then ventilated and incubated for the required time under controlled conditions. At the end of the experiment a dimethylsulfoxide (DMSO) extract of the plant tissue is prepared, and the chlorophyll content of the extract is determined by spectrophotometric analysis. The chlorophyll content is reported either on a fresh, dry weight basis, or on a surface area basis. (3) Epinasty—This is also one of the classical methods for studying ethylene effects in plants. The extent of ethylene-induced epinasty of leaves is determined by measuring the change of the angle between the petiole and the stem shoot or blade. After exposure of the intact plant to ethylene, the upright grown leaves bend downward. The increase in the angle values (degrees) between petiole and the stem is used as a measure of the effect of the ethylene. […]
# [2] = tested on: wheat seedlings; test: Third leaf growth of young wheat seedlings exposed to ethylene; assay type: in vivo, wheat (Triticum turgidum var. 'Gdera')
# [3] = Solubility in water; assay type: physicochemical; details: 25° C.
# Protocol: WS-CPD is highly soluble in water at 25° C. (≧400 mg mL^−1), FIG. 63. Upon heating, decomposition without melting occurs, beginning at 265-270° C.
# [4] = tested on: excised cotton leaves at different developmental stages; test: Ethylene-induced chlorophyll degradation in leaves of mature cotton plants; assay type: in vivo, cotton (Gossyium hirsutum barbadense L.)
# Protocol: as §1
# [5] = tested on: wheat plants; test: Ethephon-induced flag leaf epinasty of wheat plants after spike heading; assay type: in vivo, wheat (Triticum turgidum var. 'Gdera'); details: WS-CPD 135 and 415 μg mL^−1 pretreatment; Ethephon 750 μL L^−1
# Protocol: (1) Abscission—This is a very sensitive model system for studying the effects of plant hormones. Ethylene induces the process of abscission, while auxin delays it. In the laboratory the experimental system is based on plant organ explants, which include the abscission zone. Abscission is induced by exposure to ethylene and at the termination of the experiment the number of abscised organs, usually either leaf blades or petioles are counted and the fraction of abscission is calculated. In the case of fruit, the decrease in fruit retention force is analyzed. In cotton, when WS-CPD (the ethylene-action antagonist herein disclosed) is tested, the whole plants or explants are pretreated by spraying with the antagonist, dissolved in a phosphate buffer solution (10-20 mM, pH 7.0) including 0.1% commercially available Kinetic™ as surfactant, and left to incubate for a predetermined time, usually between 6 and 24 h. […] At the end of the experiment the percentage of abscission is determined. […] At the end of the experiment a dimethylsulfoxide (DMSO) extract of the plant tissue is prepared, and the chlorophyll content of the extract is determined by spectrophotometric analysis. […] The extent of ethylene-induced epinasty of leaves is determined by measuring the change of the angle between the petiole and the stem shoot or blade. […]
# [6] = tested on: young cotton seedlings; test: Ethylene-induced leaf epinasty of young cotton seedlings; assay type: in vivo, cotton (Gossyium hirsutum barbadense L.)
# Protocol: (1) Abscission-This is a very sensitive model system for studying the effects of plant hormones. Ethylene induces the process of abscission, while auxin delays it. In the laboratory the experimental system is based on plant organ explants, which include the abscission zone. Abscission is induced by exposure to ethylene and at the termination of the experiment the number of abscised organs, usually either leaf blades or petioles are counted and the fraction of abscission is calculated. In the case of fruit, the decrease in fruit retention force is analyzed. […] The plants or explants are then further exposed for 24 h to ethylene gas (5 to 20 μL L^-1). The plants or explants are then ventilated and incubated for the required time under controlled conditions. At the end of the experiment the percentage of abscission is determined. […] Plant material (whole plants, excised leaves or leaf discs) are pretreated. […] The plants or explants are then ventilated and incubated for the required time under controlled conditions. At the end of the experiment a dimethylsulfoxide (DMSO) extract of the plant tissue is prepared, and the chlorophyll content of the extract is determined by spectrophotometric analysis. […] The extent of ethylene-induced epinasty of leaves is determined by measuring the change of the angle between the petiole and the stem shoot or blade. […]
smiles,measurement,setting,value
"O=C([O-])CCC1=CC1.[Na+] [WS-CPD, 3-cyclopropyl-1-enyl-propanoic sodium salt]",abscission percentage,[1]; WS-CPD 90 μg mL^−1,slightly lower than that of the untreated air control
same,abscission,"[1]; WS-CPD 10, 30 and 90 μg mL^−1",100%
same,decrease of abscission,"[1]; WS-CPD 10 and 30 μg mL^−1, after 3 days of incubation, ethylene 10 μL L^−1",20%
same,abscission,[1]; WS-CPD 240-480 μg mL^−1,50%
same,reversal of the inhibitory effect of ethylene on third leaf growth,"[2]; WS-CPD 40 μg mL^−1, 1.6 ethylene",100%
same,inhibitory effect of ethylene on third leaf growth,"[2]; WS-CPD 4 and 40 μg mL^−1 spray at day 10, ethylene 1.6 to 40 μg L^−1 (so in the source) 24 h later for two days",effectively antagonized
same,solubility,[3],≥ 400 mg/mL
same,ethylene-induced chlorophyll degradation,"[4]; mature leaves, WS-CPD 480 μg L^−1 (so in the source)",less effective
same,inhibition of ethylene-induced chlorophyll degradation,"[4]; mature leaves, WS-CPD 90 and 240 μg mL^−1",95%
same,ethylene-induced chlorophyll degradation,"[4]; young leaves, WS-CPD 10 μg mL^−1, ethylene 10 μL L^−1",completely antagonized
same,ethylene-induced chlorophyll degradation,"[4]; young leaves, WS-CPD 270 μg mL^−1",less effective
same,Ethephon-induced flag leaf epinasty,[5],partly protected
same,ethylene-induced leaf epinasty,"[6]; WS-CPD 10 and 30 μg mL^−1, ethylene 10 μL L^−1",completely reversed
same,ethylene-induced epinasty,"[6]; WS-CPD spray 10 to 300 μg mL^−1, 24 h later ethylene 10 μL L^−1 for 24 h, three-week-old seedlings",completely antagonized
